Molecules are shown by their SMILES. Non-standard residues stand in square brackets, D forms with d. Residues, ends and D or L forms follow the SMILES beside them. Gly(octyl) = CCCCCCCC[C@H](N)C(=O)O

One series concerns neutrophil elastase. The series can be described thus: Previous intratracheal study in the LPS/fMLP rat model. As to conditions: intratracheal doses of 0.03 to 3 mg/kg. Type of series: in vivo. An excerpt: The doses of fMLP and the time points were chosen based upon published data (see e.g. S. Yasui, A. Nagai, K. Aoshiba et al., Eur. Respir. J., 1995, 8, 1293; T. Yang, J. Zhang, K. Sun et al., Inflamm. Res. 2012, 61, 563; R. Corteling, D. Wyss, A. Trifilieff, BMC Pharmacology, 2002, 2, 1) and experience at Envigo CRS Limited. The dose selection of the drug was based on a previous intratracheal study at Envigo CRS Limited.

The test system of the next series is healthy subjects. The series can be described thus: First-in-man study in healthy subjects, safety and tolerability of orally inhaled single doses. In kind it is in vivo, human. From the text:
In this randomised, double-blind, placebo-controlled, parallel-group (per dose level) dose-escalation study of inhaled single doses in 48 healthy subjects in six dose groups of eight subjects each, conducted by Inamed GmbH, Gauting, Germany, the controlled oral inhalation of the formulation described in Example 1 and dilutions thereof as well as the placebo (0.5% [w/w] aqueous sodium chloride solution adjusted to pH 5.5 with 1 M HCl pharmaceutical grade) occurred via the Pari eFlow® XL 30 nebulizer device (Pari Pharma GmbH, Starnberg, Germany). The dose levels and corresponding concentrations of cyclo(-OctG-Glu-Thr-Ala-Ser-Ile-Pro-Pro-Gln-Lys-Tyr-^DPro-Pro-) (active compound) are summarized in Table 10.
The volume of placebo nebulizer solution corresponded to that of the active compound at a particular dose level. The duration of inhalation depended on the total volume of nebulizer solution and ranged between several minutes and roughly one hour. Adverse events were tabulated and summarized according to the current version of Medical Dictionary for Regulatory Activities.

A further series relates to rats. The series can be described thus: GLP-compliant 28-day inhalation toxicity study in rats. Type of series: in vivo, rat. The procedure:
In a GLP-compliant 28-day inhalation toxicity study in rats, conducted by Charles River Laboratories Preclinical Services, Tranent, Edinburgh, UK, the formulation described in Example 2 and dilutions thereof as well as the vehicle were administered using the Pari eFlow® XL 30 nebulizer device (Pari Pharma, Starnberg, Germany) for 100 min per day for 28 days, followed by a 2-week recovery period. […] Ten animals were used for the main toxicity study, and 5 additional animals for the recovery phase. Parameters assessed included clinical signs, body weights, food consumption, ophthalmic examination, clinical pathology, gross necropsy findings, organ weights and histopathologic examinations. […] This was associated with reduction in food consumption in treated animals. There was a good recovery in body weight gain during the recovery period between day 28 and 42.
These changes resolved during the recovery period and were considered a non-adverse, adaptive response to mild irritation. […] This slight increase in macrophage accumulation was considered a nonspecific response to the inhalation of high concentrations of material exceeding the clearance capacity of the lung.

Series [1] deals with patients with cystic fibrosis. The series can be described thus: Phase-1b single ascending dose study in patients with cystic fibrosis, safety and tolerability. In kind it is in vivo, human. An excerpt:
In this randomised, double-blind, placebo-controlled, parallel-group (per dose level) dose-escalation study, the safety and tolerability of single ascending doses (SAD) of acetate salt of cyclo(-OctG-Glu-Thr-Ala-Ser-Ile-Pro-Pro-Gln-Lys-Tyr-^DPro-Pro-) administered by inhalation in patients with cystic fibrosis (CF) was investigated. Additionally, the pharmacokinetics of the drug following a single ascending dose in plasma and sputum as well as its pharmacodynamic effect on neutrophil elastase activity in sputum were evaluated.
In this study, conducted by Inamed GmbH, Gauting, Germany, 24 subjects with cystic fibrosis, who fulfilled all the inclusion criteria and in whom no exclusion criterion was present, were included and received randomised treatment. They were grouped into 3 dose groups of 8 subjects each. 6 subjects received the formulation described in Example 1 and dilutions thereof and 2 subjects received placebo (0.5% [w/w] aqueous sodium chloride solution adjusted to pH 5.5 with 1 M HCl pharmaceutical grade). The oral inhalation of the above formulation as well as the placebo occurred via the Pari eFlow® XL 30 nebulizer device (Pari Pharma GmbH, Starnberg, Germany). The dose levels and corresponding concentrations of cyclo(-OctG-Glu-Thr-Ala-Ser-Ile-Pro-Pro-Gln-Lys-Tyr-^DPro-Pro-) (active compound) are summarized in Table 14.
The volume of placebo nebulizer solution corresponded to that of the active compound at a particular dose level. The duration of inhalation was estimated to be between 7 and 20 min. Adverse events were tabulated and summarized according to the current version of Medical Dictionary for Regulatory Activities.

For the compound `CCCCCCCC[C@@H]1NC(=O)[C@@H]2CCCN2C(=O)[C@H]2CCCN2C(=O)[C@H](Cc2ccc(O)cc2)NC(=O)[C@H](CCCCN)NC(=O)[C@H](CCC(N)=O)NC(=O)[C@@H]2CCCN2C(=O)[C@@H]2CCCN2C(=O)[C@H]([C@@H](C)CC)NC(=O)[C@H](CO)NC(=O)[C@H](C)NC(=O)[C@H]([C@@H](C)O)NC(=O)[C@H](CCC(=O)O)NC1=O` [cyclo(-OctG-Glu-Thr-Ala-Ser-Ile-Pro-Pro-Gln-Lys-Tyr-^DPro-Pro-)] (cyclo([Gly(octyl)]ETASIPPQKY[dP]P)), the “efficacy in LPS/fMLP animal model” value in the series with neutrophil elastase is “efficacious”. Also, the “death, serious and other significant adverse events” value in the series with healthy subjects (healthy subjects, single inhaled doses 20-960 mg) was “No death, no serious adverse events (AE) and no other significant AE”. Besides, in the series on healthy subjects (human, in vivo), the “subjects judging overall tolerability 'very good' or 'good'” value is 97.9%, the “total number of AEs” value was 27 and the “treatment-emergent adverse events (TEAEs)” value was found to be 24. The “clinical signs or ophthalmic findings” value in the series on rats (rat, 11, 53 and 119 mg/kg/day) is on record as “no clinical signs or ophthalmic findings”. For the same compound, in the series with rats (rat, in vivo), the “histopathology of the larynx” value is listed as “focal minimal squamous metaplasia without cellular atypia of dysplasia” and the “organ weights or gross findings” value is given as “no treatment-related changes”. In addition, the “clinical pathology findings considered toxicologically relevant” value with rats (rat, haematology, coagulation, clinical chemistry, urinalysis) is “no findings”. Moreover, the “death, serious and other significant adverse events” value in series [1] (CF patients, single inhaled doses 80, 160, 320 mg) was “No death, no serious adverse events (AE) and no other significant AE”. For the same compound, in series [1] (human, in vivo), the “TEAEs rated as severe” value is recorded as “None”, the “causal relationship of TEAEs to active compound” value is given as “not related” and the “total number of AEs (all TEAEs)” value stood at 6.

These data come from patent US11844823B2, “Beta-hairpin peptidomimetic with elastase inhibitory activity and aerosol dosage forms thereof” (POLYPHOR AG, priority 2016, dated 2023).
